# ChEMBL document CHEMBL1201862, “PubChem BioAssay data set” (2004)
#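 Following 48 hours of exposure in 96-well plates, responses at five concentrations were used to interpolate endpoints linearly. At the GI50, growth is halved.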 The source made the active and inactive calls. Cut-off read from the data, not from the text of the source: active = GI50 up to about 1.1 µM and inactive = higher.
# What was measured:
# Experiment in all cases: NCI-60 cell line screen, 48 h
# [1] = test system: A498
# [2] = test system: A549
# [3] = test system: EKVX
# [4] = test system: HOP-92
# [5] = test system: K562
# [6] = test system: LOX IMVI
# [7] = test system: M14
# [8] = test system: Malme-3M
# [9] = test system: NCI-H460
# [10] = test system: OVCAR-4
# [11] = test system: OVCAR-8
# [12] = test system: RPMI-8226
# [13] = test system: SF-295
# [14] = test system: SNB-75
# [15] = test system: SR
# [16] = test system: TK-10
# [17] = test system: UACC-257
# [18] = test system: UO-31
# [19] = test system: UACC-62
SMILES,GI50 [1],GI50 [2],GI50 [3],GI50 [4],GI50 [5],GI50 [6],GI50 [7],GI50 [8],GI50 [9],GI50 [10],GI50 [11],GI50 [12],GI50 [13],GI50 [14],GI50 [15],GI50 [16],GI50 [17],GI50 [18],GI50 [19]
CC1CN=C(N(Cc2ccccc2)C(=O)Nc2ccc(Cl)c(Cl)c2)S1 (centres undefined),35.7 µM (inactive),36.9 µM (inactive),53.3 µM (inactive),21.6 µM (inactive),21.1 µM (inactive),21.4 µM (inactive),18.3 µM (inactive),99.3 µM (inactive),35.7 µM (inactive),61.8 µM (inactive),49.3 µM (inactive),33.7 µM (inactive),> 10 µM (inactive),35.6 µM (inactive),29.1 µM (inactive),32.4 µM (inactive),32.5 µM (inactive),25.8 µM (inactive),
O=C(N/C(=C\c1cccc([N+](=O)[O-])c1)c1nc2c3c(ccc2[nH]1)C(=O)c1ccccc1C3=O)c1ccccc1,83 µM (inactive),30.9 µM (inactive),12.8 µM (inactive),32.4 µM (inactive),,,45.5 µM (inactive),40.7 µM (inactive),24.7 µM (inactive),,36.5 µM (inactive),14.1 µM (inactive),,58.6 µM (inactive),5.86 µM (inactive),20.2 µM (inactive),,> 100 µM (inactive),55.2 µM (inactive)
C=C1C(=O)OC2C=C(CCC(C)=O)C(C)C(OC(C)=O)CC12 (centres undefined),16.1 µM (inactive),22.2 µM (inactive),12.9 µM (inactive),3.99 µM (inactive),3.86 µM (inactive),1.61 µM (inactive),5.42 µM (inactive),11.2 µM (inactive),18.7 µM (inactive),13.1 µM (inactive),16.5 µM (inactive),4.52 µM (inactive),17.7 µM (inactive),10.8 µM (inactive),11.8 µM (inactive),12 µM (inactive),,13.6 µM (inactive),12.6 µM (inactive)
COC1(C)C(=O)N2C1N(C(=O)OCc1ccccc1)CC2(C)C (centres undefined),> 100 µM (inactive),> 100 µM (inactive),> 100 µM (inactive),,> 100 µM (inactive),> 100 µM (inactive),> 100 µM (inactive),> 100 µM (inactive),> 100 µM (inactive),> 100 µM (inactive),> 100 µM (inactive),> 100 µM (inactive),> 100 µM (inactive),44.9 µM (inactive),> 100 µM (inactive),> 100 µM (inactive),> 100 µM (inactive),> 100 µM (inactive),> 100 µM (inactive)
O=C(CC1(O)C(=O)Nc2c(Cl)cc(Cl)cc21)c1ccc(F)cc1 (centres undefined),,59 µM (inactive),68.7 µM (inactive),47.1 µM (inactive),,24.7 µM (inactive),32.7 µM (inactive),41.9 µM (inactive),38.8 µM (inactive),27.8 µM (inactive),21.2 µM (inactive),24.9 µM (inactive),34.7 µM (inactive),25.9 µM (inactive),29.2 µM (inactive),> 100 µM (inactive),27.6 µM (inactive),42.1 µM (inactive),35.8 µM (inactive)
O=C1C(=Cc2cccs2)C(=O)N(CCc2ccccc2)S(=O)(=O)N1CCc1ccccc1,,> 50 µM (inactive),> 50 µM (inactive),> 50 µM (inactive),32.7 µM (inactive),28.9 µM (inactive),> 50 µM (inactive),> 50 µM (inactive),> 50 µM (inactive),> 50 µM (inactive),> 50 µM (inactive),20.7 µM (inactive),> 50 µM (inactive),> 50 µM (inactive),> 50 µM (inactive),> 50 µM (inactive),> 50 µM (inactive),> 50 µM (inactive),> 50 µM (inactive)
C=CCC1(CN(C)C)CC/C(=C\c2ccc(Cl)cc2)C1=O (centres undefined),37.2 µM (inactive),59.6 µM (inactive),38.9 µM (inactive),66.8 µM (inactive),26.9 µM (inactive),23.8 µM (inactive),23.7 µM (inactive),> 74.5 µM (inactive),20.2 µM (inactive),31 µM (inactive),42.3 µM (inactive),17 µM (inactive),35.5 µM (inactive),33 µM (inactive),0.0973 µM (active),> 100 µM (inactive),25.5 µM (inactive),41.5 µM (inactive),49.9 µM (inactive)
COC(=O)CCSC(=O)Nc1ccccc1Cl,> 100 µM (inactive),> 100 µM (inactive),> 100 µM (inactive),,> 100 µM (inactive),> 100 µM (inactive),> 100 µM (inactive),,> 100 µM (inactive),> 100 µM (inactive),> 100 µM (inactive),> 100 µM (inactive),> 100 µM (inactive),> 100 µM (inactive),> 100 µM (inactive),> 100 µM (inactive),> 100 µM (inactive),> 100 µM (inactive),> 100 µM (inactive)
COC1OC(C)C2OC(C)(C)OC2C1OC(C)=O (centres undefined),> 100 µM (inactive),> 100 µM (inactive),,> 100 µM (inactive),> 100 µM (inactive),> 100 µM (inactive),> 100 µM (inactive),> 100 µM (inactive),> 100 µM (inactive),> 100 µM (inactive),> 100 µM (inactive),> 100 µM (inactive),> 100 µM (inactive),,> 100 µM (inactive),> 100 µM (inactive),> 100 µM (inactive),,> 100 µM (inactive)
CCOC(=O)C1S/C(=N\C(=N)N[N+](=O)[O-])N=C1C (centres undefined),> 100 µM (inactive),> 100 µM (inactive),> 100 µM (inactive),> 100 µM (inactive),> 100 µM (inactive),> 100 µM (inactive),,> 100 µM (inactive),> 100 µM (inactive),> 100 µM (inactive),> 100 µM (inactive),> 100 µM (inactive),> 100 µM (inactive),> 100 µM (inactive),> 100 µM (inactive),> 100 µM (inactive),> 100 µM (inactive),> 100 µM (inactive),
COc1cc2c(c3c1c(=O)c1ccccc1n3C)C=C([N+](=O)[O-])C(C)(C)O2,0.0253 µM (active),0.0247 µM (active),,0.431 µM (active),0.441 µM (active),0.138 µM (active),0.157 µM (active),,< 0.0201 µM (active),> 100 µM (inactive),0.532 µM (active),> 31.6 µM (inactive),0.647 µM (active),13.2 µM (inactive),0.124 µM (active),> 65.2 µM (inactive),< 0.0454 µM (active),0.421 µM (active),0.769 µM (active)
CC1C/C(=C\c2ccc(OC(=O)C(C)(C)C)cc2)C(=O)/C(=C/c2ccc(OC(=O)C(C)(C)C)cc2)C1 (centres undefined),33.6 µM (inactive),40.6 µM (inactive),> 100 µM (inactive),> 100 µM (inactive),84.7 µM (inactive),35.6 µM (inactive),> 100 µM (inactive),> 100 µM (inactive),> 100 µM (inactive),31.4 µM (inactive),36 µM (inactive),,81.5 µM (inactive),,22.3 µM (inactive),> 100 µM (inactive),> 100 µM (inactive),,95.5 µM (inactive)
CC(=O)OC[C@@H]1[C@H]2CC(=O)O[C@H]2C[C@H]1OC(C)=O,> 100 µM (inactive),> 100 µM (inactive),> 100 µM (inactive),> 100 µM (inactive),,> 100 µM (inactive),> 100 µM (inactive),> 100 µM (inactive),> 100 µM (inactive),> 100 µM (inactive),> 100 µM (inactive),> 100 µM (inactive),> 100 µM (inactive),> 100 µM (inactive),> 100 µM (inactive),> 100 µM (inactive),> 100 µM (inactive),> 100 µM (inactive),> 100 µM (inactive)
C[C@@H]1[C@H](C)N1CC(O)Cn1ccnc1[N+](=O)[O-] (some centres undefined),> 100 µM (inactive),> 100 µM (inactive),> 100 µM (inactive),,> 100 µM (inactive),> 100 µM (inactive),> 100 µM (inactive),> 100 µM (inactive),> 100 µM (inactive),> 100 µM (inactive),> 100 µM (inactive),,> 100 µM (inactive),> 100 µM (inactive),> 100 µM (inactive),> 100 µM (inactive),> 100 µM (inactive),> 100 µM (inactive),> 100 µM (inactive)
CC1(C)C(O)OC(O)C1(C)C (centres undefined),,> 100 µM (inactive),> 100 µM (inactive),> 100 µM (inactive),57.9 µM (inactive),46.9 µM (inactive),65.2 µM (inactive),> 100 µM (inactive),> 100 µM (inactive),> 100 µM (inactive),41.8 µM (inactive),70 µM (inactive),> 100 µM (inactive),35.2 µM (inactive),,> 100 µM (inactive),34.5 µM (inactive),57.3 µM (inactive),91 µM (inactive)
COc1ccc(OC)c(/C=C/c2cnnc3ccccc23)c1,,3.27 µM (inactive),4.15 µM (inactive),3.89 µM (inactive),2.33 µM (inactive),3.48 µM (inactive),5.21 µM (inactive),,4.11 µM (inactive),5.48 µM (inactive),7.5 µM (inactive),3.16 µM (inactive),5.4 µM (inactive),4.19 µM (inactive),1.51 µM (inactive),> 10 µM (inactive),3.39 µM (inactive),5.08 µM (inactive),3.74 µM (inactive)
